Legend:
[1] = biological target: T1, GDP-loaded KRAS4b (amino acids 1-169) G12C/C118S protein (Homo sapiens, UniProt P01116, C118S/G12C); assay: Covalent cysteine 12 modification by MALDI-TOF MS, GDP-loaded KRAS G12C; format: binding; conditions: 15 minutes reaction time point
T1 construct: KRAS4b (amino acids 1-169) G12C/C118S protein; made in house
Outline: (§1)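 Covalent labelling is scored at 15 min by MALDI-TOF mass spectrometry, using 1 μM protein with compound at a 1:2.5 protein-to-compound ratio at room temperature.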

[2] = biological target: T2, GppNHp-loaded KRAS4b (amino acids 1-169) G12C/C118S protein (Homo sapiens, UniProt P01116, C118S/G12C); assay: Covalent cysteine 12 modification by MALDI-TOF MS, GppNHp-loaded KRAS G12C; format: binding; conditions: 15 minutes reaction time point
T2 construct: KRAS4b (amino acids 1-169) G12C/C118S protein; made in house
Outline: as §1

[3] = biological target: T3, Avi-KRAS G12C (1-169) GppNHp/RAF1 RBD-3×FLAG (52-151) (Homo sapiens, UniProt P01116, G12C); assay: Raf1 RBD-KRAS G12C-GppNHp disruption assay (protein:protein interaction HTRF); format: biochemical
T3 construct: Avi-KRAS G12C (1-169) GppNHp; Avi (N)
Outline: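 HTRF measuring RAF1 RBD binding to GppNHp-loaded KRAS G12C (50 nM) in Tris pH 7.5, 100 mM NaCl, 5 mM MgCl2, 10% DMSO. Compound, KRAS, RBD and detection reagents each added sequentially with 1 h room-temperature incubations; 10-point titration; excitation 320 nm, emission 615 nm; activity as % of DMSO; IC50 derived.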

SMILES | GDP-KRAS G12C percent of modification [1] | GppNHp-KRAS G12C percent of modification [2] | IC50 [3] [µM]
C=CC(=O)N1CC[C@@H](N(C)c2nc(OC[C@@]34CCCN3C[C@H](F)C4)nc3c(F)c(-c4ccc(F)c5sc(N)c(C#N)c45)c(Cl)cc23)[C@@H]1C (atropisomer, axis not shown) [Compound 69] | D (percent of modification <10%) | D (percent of modification <10%) | 0.5 to 5
C=CC(=O)N1CCC(N(C)c2nc(OC[C@@]34CCCN3C[C@H](F)C4)nc3c(F)c(-c4ccc(F)c5sc(N)c(C#N)c45)c(Cl)cc23)[C@H]1CC (stereo partly shown) [Compound 2] | B (50≤percent of modification <70%) | D (percent of modification <10%) | 0.5 to 5
C=CC(=O)N1C[C@H]2C[C@@H]1CN2c1nc(OC[C@@]23CCCN2C[C@H](F)C3)nc2c(F)c(-c3ccc(F)c4sc(N)c(C#N)c34)c(C(F)(F)F)cc12 [Compound 37] | C (10%≤percent of modification <50%) | D (percent of modification <10%) | 0.5 to 5
C=CC(=O)N1CC[C@@H](N(CC)c2nc(OC[C@@]34CCCN3C[C@H](F)C4)nc3cc(-c4ccc(F)c5sc(N)c(C#N)c45)c(C#N)cc23)[C@@H]1CC [Compound 40] | A (percent of modification ≥70%) | D (percent of modification <10%) | 0.5 to 5
C=CC(=O)N1CC[C@@H](N(CC)c2nc(OC[C@@]34CCCN3C[C@H](F)C4)nc3cc(-c4ccc(F)c5sc(N)c(C#N)c45)c(F)cc23)[C@@H]1CC [Compound 41] | A (percent of modification ≥70%) | D (percent of modification <10%) | 0.5 to 5
C=CC(=O)N1CC2CC(C1)N2c1nc(OC[C@@]23CCCN2C[C@H](F)C3)nc2c(F)c(-c3ccc(F)c4sc(N)c(C#N)c34)c(C(F)(F)F)cc12 [Compound 46] | C (10%≤percent of modification <50%) | D (percent of modification <10%) | 0.5 to 5
C=CC(=O)N1CC2CCC(C1)N2c1nc(OC[C@@]23CCCN2C[C@H](F)C3)nc2c(F)c(-c3ccc(F)c4sc(N)c(C#N)c34)c(C(F)(F)F)cc12 [Compound 49] | A (percent of modification ≥70%) | C (10%≤percent of modification <50%) | < 0.5
C=CC(=O)N1CC[C@@H](N(CC)c2nc(OC[C@@]34CCCN3C[C@H](F)C4)nc3c(F)c(-c4ccc(F)c5sc(N)c(C#N)c45)ccc23)[C@@H]1CC [Compound 50] | A (percent of modification ≥70%) | D (percent of modification <10%) | 0.5 to 5
C=CC(=O)N1CC[C@@H](N(C)c2nc(OC[C@@H]3C[C@@H](OC)CN3C)nc3c(F)c(-c4ccc(F)c5sc(N)c(C#N)c45)c(Cl)cc23)[C@@H]1C [Compound 79] |  | A (percent of modification ≥70%) | < 0.5
C=CC(=O)N1CC[C@@H](N(C)c2nc(OC[C@@H]3CCCN3CC)nc3c(F)c(-c4ccc(F)c5sc(N)c(C#N)c45)c(Cl)cc23)[C@@H]1C [Compound 84] |  | A (percent of modification ≥70%) | < 0.5
C=CC(=O)N1CC[C@@H](N(C)c2nc(OC[C@@H]3CCCN3CC)nc3c(F)c(-c4ccc(F)c5sc(N)c(C#N)c45)c(C(F)(F)F)cc23)[C@H]1C [Compound 88] | B (50≤percent of modification <70%) |  | < 0.5

Other lines, results leading:

GDP-KRAS G12C percent of modification [1] | GppNHp-KRAS G12C percent of modification [2] | IC50 [3] [µM] | SMILES
A (percent of modification ≥70%) | A (percent of modification ≥70%) | < 0.5 | C=CC(=O)N1CC[C@@H](N(C)c2nc(OC[C@@]34CCCN3C[C@H](F)C4)nc3c(F)c(-c4ccc(F)c5sc(N)c(C#N)c45)c(Cl)cc23)[C@@H]1C (atropisomer, axis not shown) [Compound 68]
B (50≤percent of modification <70%) | C (10%≤percent of modification <50%) | < 0.5 | C=CC(=O)N1CCC(N(C)c2nc(OC[C@@H]3CCCN3C3CC3)nc3c(F)c(-c4ccc(F)c5sc(N)c(C#N)c45)c(C(F)(F)F)cc23)[C@H]1C (stereo partly shown) [Compound 1]
C (10%≤percent of modification <50%) | C (10%≤percent of modification <50%) | < 0.5 | C=CC(=O)N1CCC(N(C)c2nc(OC[C@@]34CCCN3C[C@H](F)C4)nc3c(F)c(-c4ccc(F)c5sc(N)c(C#N)c45)c(C(F)(F)F)cc23)[C@H]1CC (stereo partly shown) [Compound 3]
C (10%≤percent of modification <50%) | C (10%≤percent of modification <50%) | < 0.5 | C=CC(=O)N1CC[C@@H](N(CC)c2nc(OC[C@@]34CCCN3C[C@H](F)C4)nc3c(F)c(-c4ccc(F)c5sc(N)c(C#N)c45)c(C(F)(F)F)cc23)[C@H]1CC [Compound 39]
A (percent of modification ≥70%) | A (percent of modification ≥70%) | < 0.5 | C=CC(=O)N1CC[C@@H](N(C)c2nc(OC[C@@]34CCCN3C[C@H](F)C4)nc3cc(-c4ccc(F)c5sc(N)c(C#N)c45)c(C#N)cc23)[C@H]1CC [Compound 42]
A (percent of modification ≥70%) | A (percent of modification ≥70%) | < 0.5 | C=CC(=O)N1CC[C@@H](N(CC)c2nc(OC[C@@H]3C[C@@H](OC)CN3C)nc3c(F)c(-c4ccc(F)c5sc(N)c(C#N)c45)c(C(F)(F)F)cc23)[C@H]1C [Compound 45, 4-(4-(((2R,3R)-1-acryloyl-2-methylpyrrolidin-3-yl)(ethyl)amino)-8-fluoro-2-(((2S,4R)-4-methoxy-1-methylpyrrolidin-2-yl)methoxy)-6-(trifluoromethyl)quinazolin-7-yl)-2-amino-7-fluorobenzo[b]thiophene-3-carbonitrile]
 | A (percent of modification ≥70%) | < 0.5 | C=CC(=O)N1CC[C@@H](N(C)c2nc(OC[C@@H]3CCCN3C)nc3c(F)c(-c4ccc(F)c5sc(N)c(C#N)c45)c(Cl)cc23)[C@H]1C [Compound 59]
 | C (10%≤percent of modification <50%) | < 0.5 | C=CC(=O)N1CC[C@@H](N(C)c2nc(OC[C@@H]3C[C@@H](F)CN3C)nc3c(F)c(-c4ccc(F)c5sc(N)c(C#N)c45)c(Cl)cc23)[C@H]1C [Compound 61]
 | B (50≤percent of modification <70%) | < 0.5 | C=CC(=O)N1CC[C@@H](N(C)c2nc(OC[C@@H]3CC4(CC4)CN3C)nc3c(F)c(-c4ccc(F)c5sc(N)c(C#N)c45)c(Cl)cc23)[C@H]1C [Compound 64]
 | A (percent of modification ≥70%) | < 0.5 | C=CC(=O)N1CC[C@@H](N(CC)c2nc(OC[C@@H]3CC4(CC4)CN3C)nc3c(F)c(-c4ccc(F)c5sc(N)c(C#N)c45)c(C(F)(F)F)cc23)[C@H]1C [Compound 65]
 | A (percent of modification ≥70%) | < 0.5 | C=CC(=O)N1CC[C@@H](N(CC)c2nc(OC[C@@H]3CCCN3C)nc3c(F)c(-c4ccc(F)c5sc(N)c(C#N)c45)c(C(F)(F)F)cc23)[C@H]1C [Compound 66]

Source: patent US20260232666A1, “COMPOSITIONS AND METHODS FOR INHIBITION OF RAS” (TheRas, Inc., priority 2023, published 2026)
